Source: publication PMC8150835, “An Smp43-Derived Short-Chain α-Helical Peptide Displays a Unique Sequence and Possesses Antimicrobial Activity against Both Gram-Positive and Gram-Negative Bacteria” (Toxins, 2021)
Values after ≈ are worked out from the molar mass of the structure shown. “Also recorded” adds a separate entry of the source. Where a SMILES comes first, the peptide text is derived from it.

Legend:
[1] = system: mouse fibroblast cell line L929; assay: Cytotoxicity determination (CCK-8); type: cell-based; conditions: L929 cells, peptide 0-100 μg/mL, 24 h, CCK-8, OD 450 nm; three independent experiments
Description: To determine the cytotoxicity of the peptide, the mouse fibroblast cell L929 (8000 cells per well) were seeded in a 96-well plate and incubated for 24 h in Dulbecco’s modified Eagle’s medium (DMEM, Gibco, USA) supplemented with 10% fetal bovine serum (FBS, Gibco, USA), 2 mM/L L-glutamine, 100 U/mL penicillin and […] streptomycin (1% P/S, Invitrogen, USA) at 37 °C in a 5% CO2 atmosphere. Then, a series of concentrations of the peptide (0, 5, 10, 20, 40, 60, 80 and 100 μg/mL) were added into each well and incubation was performed for 24 h. After that, the cytotoxicity of the peptide was measured with the CCK8 cell counting kit (Yeasen, Shanghai, China) by measuring the optical density at 450 nm.

[2] = system: human red blood cells; assay: Hemolytic activity determination; type: cell-based; conditions: 2% (v/v) hRBCs, peptide 12.5-200 μg/mL, 37 °C, 1 h, absorbance 540 nm; 1% Triton X-100 = 100%; three independent experiments
Description: The hemolytic activities of the peptides were determined against human red blood cells (hRBCs). Briefly, fresh hRBCs anticoagulated with sodium citrate were rinsed with 0.9% sodium chloride by centrifugation (1000× g, 5 min). Then, the cells were diluted to a final concentration of 2% (v/v) and prepared in a clear 96-well polypropylene microtiter plate. Next, the samples were mixed with a series of concentrations of the peptide (12.5, 25, 50, 100 and 200 μg/mL) and incubated at 37 °C for 1 h. After that, the samples were centrifuged (2000× g, 10 min), and the absorbances of the supernatants were measured at 540 nm to evaluate the release of hemoglobin. HRBCs treated with 1% Triton X-100 or 0.9% sodium chloride were taken as 100% and 0% hemolysis, respectively.

[3] = system: Gram-positive and Gram-negative bacteria (all bacterial strains tested); assay: MIC determination, summary over all tested bacterial strains; type: cell-based; conditions: summary over the six strains tested; MHB, 37 °C, 18 h, peptide 0.625 to 40 μg/mL
Description: (§1) The antimicrobial activities of the peptides were tested against S. aureus ATCC29213, E. faecalis ATCC29212, E. coli ATCC25922, K. pneumoniae ATCC700603, P. aeruginosa ATCC27853 and A. baumannii ATCC19606. All these strains were purchased from the China Center of Type Culture Collection (CCTCC).
(§2) The antimicrobial activities of the peptides were determined as previously described. Briefly, the bacteria were incubated at 37 °C and 150 rpm until the log phase of growth. Next, the bacteria were diluted with Mueller-Hinton broth (MHB, Oxoid, UK) and prepared in a clear round-bottom polypropylene 96-well microtiter plate to achieve a final concentration of 5 × 10^5 colony-forming unit (CFU)/mL. Twofold serial dilutions of the peptides were added into each well with the concentrations ranging from 0.625 to 40 μg/mL. The mixed peptides and cells were cultured at 37 °C and 150 rpm for 18 h, and the optical density (OD) was measured at 630 nm. The minimum inhibitory concentration was defined as the lowest peptide concentration with no detectable bacterial growth.

[4] = system: Acinetobacter baumannii ATCC19606; assay: MIC determination (broth microdilution); type: cell-based; conditions: MHB, 5 × 10^5 CFU/mL, peptide 0.625 to 40 μg/mL, 37 °C, 18 h, OD 630 nm
Description: as §1, §2

[5] = system: Enterococcus faecalis ATCC29212; assay: MIC determination (broth microdilution); type: cell-based; conditions: MHB, 5 × 10^5 CFU/mL, peptide 0.625 to 40 μg/mL, 37 °C, 18 h, OD 630 nm
Description: as §1, §2

[6] = system: Escherichia coli ATCC25922; assay: MIC determination (broth microdilution); type: cell-based; conditions: MHB, 5 × 10^5 CFU/mL, peptide 0.625 to 40 μg/mL, 37 °C, 18 h, OD 630 nm
Description: as §1, §2

[7] = system: Klebsiella pneumoniae ATCC700603; assay: MIC determination (broth microdilution); type: cell-based; conditions: MHB, 5 × 10^5 CFU/mL, peptide 0.625 to 40 μg/mL, 37 °C, 18 h, OD 630 nm
Description: as §1, §2

[8] = system: Staphylococcus aureus ATCC29213; assay: MIC determination (broth microdilution); type: cell-based; conditions: MHB, 5 × 10^5 CFU/mL, peptide 0.625 to 40 μg/mL, 37 °C, 18 h, OD 630 nm
Description: as §1, §2

[9] = system: Pseudomonas aeruginosa ATCC27853; assay: MIC determination (broth microdilution); type: cell-based; conditions: MHB, 5 × 10^5 CFU/mL, peptide 0.625 to 40 μg/mL, 37 °C, 18 h, OD 630 nm
Description: as §1, §2

[10] = system: tested pathogens; conditions: reported for the parent peptide; cited from earlier work

With `CC[C@H](C)[C@H](NC(=O)[C@H](CCCCN)NC(=O)CNC(=O)[C@H](C)NC(=O)[C@@H](NC(=O)[C@H](CCCCN)NC(=O)[C@H](CCCCN)NC(=O)[C@@H](NC(=O)[C@H](Cc1c[nH]c2ccccc12)NC(=O)[C@H](CC(=O)O)NC(=O)[C@H](Cc1c[nH]c2ccccc12)NC(=O)[C@@H](NC(=O)CN)C(C)C)[C@@H](C)CC)[C@@H](C)O)C(=O)N[C@@H](Cc1c[nH]c2ccccc12)C(N)=O` [Smp43(1-14)] (H-GVWDWIKKTAGKIW-NH2) the “IC10: the concentration of the peptide that causes 10% inhibition of cell growth” value [1] was 92 µg/mL, the “HC10: the concentration of the peptide that causes 10% hemolysis of human red blood cells” value [2] was 75 µg/mL and the “MICs against the tested Gram-positive and Gram-negative bacterial species” value [3] was 5 to 10 µg/mL. For the same compound, the MIC [4] was 5 µg/mL (≈ 2.96 µM), the MIC [5] was 10 µg/mL (≈ 5.93 µM) and the MIC [6] was 10 µg/mL (≈ 5.93 µM). The MIC [7] was 10 µg/mL (≈ 5.93 µM), the MIC [8] was 5 µg/mL (≈ 2.96 µM) and the MIC [9] was 10 µg/mL (≈ 5.93 µM).

In the case of `CC[C@H](C)[C@H](NC(=O)[C@H](CCCCN)NC(=O)[C@H](CCC(=O)O)NC(=O)[C@H](C)NC(=O)[C@@H](NC(=O)[C@H](Cc1ccccc1)NC(=O)[C@H](CC(N)=O)NC(=O)[C@H](CCCCN)NC(=O)[C@H](C)NC(=O)[C@H](C)NC(=O)[C@H](CC(N)=O)NC(=O)[C@H](CC(C)C)NC(=O)[C@H](C)NC(=O)[C@@H](N)CCC(N)=O)C(C)C)C(N)=O` [Smp43(25-38)] (H-QALNAAKNFVAEKI-NH2), the “HC10: the concentration of the peptide that causes 10% hemolysis of human red blood cells” value [2] is reported as over 200 µg/mL, the MIC [4] is reported as over 40 µg/mL and the MIC [5] is reported as over 40 µg/mL. It also gave an MIC [6] of over 40 µg/mL, an MIC [7] of over 40 µg/mL and an MIC [8] of over 40 µg/mL. The MIC [9] was over 40 µg/mL.

With `CC[C@H](C)[C@H](NC(=O)[C@H](CCCCN)NC(=O)[C@H](CCC(=O)O)NC(=O)[C@H](C)NC(=O)[C@@H](NC(=O)[C@H](Cc1ccccc1)NC(=O)[C@H](CC(N)=O)NC(=O)[C@H](CCCCN)NC(=O)[C@H](C)NC(=O)[C@H](C)NC(=O)[C@H](CC(N)=O)NC(=O)[C@@H](N)CC(C)C)C(C)C)C(=O)NCC(=O)N[C@@H](C)C(N)=O` [Smp43(27-40)] (H-LNAAKNFVAEKIGA-NH2) the “HC10: the concentration of the peptide that causes 10% hemolysis of human red blood cells” value [2] was over 200 µg/mL, the MIC [4] was over 40 µg/mL and the MIC [5] was over 40 µg/mL. The MIC [6] was over 40 µg/mL, the MIC [7] was over 40 µg/mL and the MIC [8] was over 40 µg/mL. It also gave an MIC [9] of over 40 µg/mL.

In the case of `CC[C@H](C)[C@H](NC(=O)[C@H](CCCCN)NC(=O)[C@H](CCC(=O)O)NC(=O)[C@H](C)NC(=O)[C@@H](NC(=O)[C@H](Cc1ccccc1)NC(=O)[C@H](CC(N)=O)NC(=O)[C@H](CCCCN)NC(=O)[C@H](C)NC(=O)[C@H](C)N)C(C)C)C(=O)NCC(=O)N[C@@H](C)C(=O)N[C@H](C(=O)N1CCC[C@H]1C(N)=O)[C@@H](C)O` [Smp43(29-42)] (H-AAKNFVAEKIGATP-NH2), the “HC10: the concentration of the peptide that causes 10% hemolysis of human red blood cells” value [2] is reported as over 200 µg/mL, the MIC [4] is reported as over 40 µg/mL and the MIC [5] is reported as over 40 µg/mL. For the same compound, the MIC [6] was over 40 µg/mL, the MIC [7] was over 40 µg/mL and the MIC [8] was over 40 µg/mL. It also gave an MIC [9] of over 40 µg/mL.

For “G-VWDWIKKTAGKIWNSEPVKALKSQALNAAKNFVAEKIGATPS [Smp43]”, the antimicrobial activity [10] is listed as “poor antimicrobial activities; also recorded: poor antimicrobial activity”.
